Test results: publication PMC3511043, “The multicomponent approach to N-methyl peptides: total synthesis of antibacterial (–)-viridic acid and analogues” (Beilstein Journal of Organic Chemistry, 2012)

Test system: Aliivibrio fischeri
Assay: Aliivibrio fischeri assay: inhibition of bacterial luminescence
Type: cell-based
Details: inhibition of bacterial luminescence vs untreated bacteria; 96-well plates; concentration series in DMSO/medium (2% v/v); 24 h incubation at 23 °C in the dark; saline BOSS medium (3% NaCl w/w); read-out: IC50 against the Gram-negative bacterium Aliivibrio fischeri
From the text: To our knowledge no biological screening of pure (−)-viridic acid or its analogues has been performed, and due to the potential of natural peptides and peptoids as antibacterial agents, it was decided to investigate their activity against the Gram-negative bacterium Aliivibrio fischeri. […] Although (−)-viridic acid (1) was isolated thirty years ago, this is the first unambiguous report concerning its biological activity. Based upon the results presented above, it seems that the configuration of the stereogenic center has almost no influence on the antibacterial effect of 1.
The Aliivibrio fischeri assay is based on the measurement of the inhibition of bacterial luminescence against a negative control. Bacteria were pregrown on a saline BOSS medium (3% NaCl w/w) whereby at a certain population density, bacterial luminescence will start. The bacterial suspension was diluted, distributed into 96-well microtiter plates (mtp) and the respective compounds were applied as a concentration series as solutions in DMSO/medium (2% v/v) and mixed. The luminescence of bacteria treated with the respective compounds was measured after 24 h incubation at 23 °C in the dark, in relation to controls of untreated bacteria.
1 Neves Filho, R. A. W.; Stark, S. S.; Morejon, M. C.; Westermann, B.;
3 Malkov, A. V.; Stoncius, S.; Mac Dougall, K. N.; Mariani, A.; McGeoch, G. D.; […]

SMILES | IC50
CC(C)C(C(=O)Nc1ccccc1C(=O)O)N(C)C(=O)CNC(=O)c1ccccc1N(C)C (racemic) [(±)-1, racemic viridic acid] | 38.4 ± 5.8 µM
CC(C)[C@@H](C(=O)Nc1ccccc1C(=O)O)N(C)C(=O)CNC(=O)c1ccccc1N(C)C [(−)-1, (−)-viridic acid] | 45 ± 4.4 µM
